In patent US20200055808A1, “COMPOSITION FOR USE IN DETECTING AN ALLERGY TO CLAVULANIC ACID” (SERVICIO ANDALUZ DE SALUD, priority 2016, published 2020):

Assays:
basophils = test: Basophil activation test (BAT) by flow cytometry; assay type: cell-based, human; details: for stimulation indices in patients compared to controls: 8, 4, 2, 1 mM, 7 patients positive for Clav 2 vs 6 controls, p=0.003 Clav 2 and p=0.015 Clav 5 at 8 mM, p=0.015 Clav 2 at 4 mM, FIG. 5; for BAT result (stimulation index): 5, 1 and 0.2 mM, 25 patients selective for CLV and 15 tolerant controls, positive at the highest concentration, FIG. 3
Description: The “basophil activation test” or “BAT” is an in vitro functional test which detects the activation of basophils after a stimulus with a specific antigen by detecting the expression of cell surface activation markers, which is usually monitored by flow cytometry using fluorescent monoclonal antibodies. Therefore, this test is used for the in vitro diagnosis of allergies. The technique comprises several steps: drawing blood and preparing the solution or suspension, performing stimulation with allergen(s), performing cellular marking with fluorescent antibodies which discriminate activated basophils, and performing counting in a flow cytometer. The technique can be carried out using as the substrate whole blood or the buffy coat previously isolated from the whole blood sample.
The BAT was performed as described by Torres M J et al. (Torres M J, et al. Clin Exp Allergy 2004; 34:1768-75) with CLV (Sigma Aldrich, Saint Louis, USA). […] The cells were stained with monoclonal antibodies, anti-CD63-FITC, CD203c-PE, CCR3-APC (Caltag Laboratories, Burlingame, Calif.), and measured in a FACSCalibur flow cytometer (Becton-Dickinson Bioscience, San José, Calif.) acquiring at least 500-1000 basophils per sample. The results were analyzed with FlowJo® software (Tree Star, Inc. USA), and the activation was expressed as a stimulation index (SI), calculated as the ratio between the percentage of activated basophils (CD63+ or CD203c+cells) in samples stimulated with different haptenes and non-stimulated sample. To calculate the SI, the percentage of spontaneously activated basophils was required to be equal to or greater than 5%, as described by Sanz M L et al. (Sanz M L, et al. Clin Exp Allergy 2002; 32:277-86).

[1] = tested on: IgE-mediated basophil activation pathway; test: BAT with wortmannin (WTM) inhibition of the IgE-mediated basophil activation pathway; assay type: cell-based, human; details: WTM 1 μM; 8 mM: p=0.002 Clav2, p=0.001 Clav 5; 4 mM: p=0.001 both; FIG. 7
Experimental: To confirm that the activation of basophils was mediated by IgE, the inhibitory effect of wortmannin at 1 μM was analyzed. Wortmannin acts as a specific inhibitor of phosphatidylinositol 3-kinase (Pl3-K), which has proven to be one of the most important FceRI receptor-activated kinases involved in human basophil IgE-mediated stimulation. This was used with the positive control (anti-IgE) and the different haptenes and synthesized structures at the same concentrations described above.

[2] = 6 tolerant controls, same cutoff point, FIG. 6
[3] = 7 patients positive for Clav 2 in the preceding test, same cutoff point, FIG. 6
[4] = 15 tolerant subjects, cutoff SI CLV >1.5, Clav 2 >3 (ROC curves), FIG. 4
[5] = 25 patients selective for CLV, cutoff SI CLV >1.5, Clav 2 >3 (ROC curves), FIG. 4

## CCOC(CC(=O)OC(=O)CC(OCC)OCC)OCC [Clav 5, 3,3-diethoxypropanoic anhydride]
basophils; [2]
  percentage of positive cases in BAT: 28.6%
basophils; [3]
  percentage of positive cases in BAT: 71.4%
basophils
  stimulation indices in patients compared to controls: higher stimulation indices
[1]
  basophil activation after prior incubation with WTM: IgE-mediated and specific

## CCCCNC(=O)CCN [Clav 3, 3-amino-N-butylpropanamide]
basophils; first phase
  BAT result (stimulation index): only Clav 2 provided positive results

## CC(C)COC(=O)OC(=O)CC(=O)OC(=O)OCC(C)C [Clav 2, bis-((isobutoxycarbonyl)oxy)-1,3-dioxopropanoic anhydride]
basophils; [2]
  percentage of positive cases in BAT: no positive case
basophils; [3]
  percentage of positive cases in BAT: 85.7%
basophils
  stimulation indices in patients compared to controls: higher stimulation indices
basophils; [4]
  percentage of positive cases in BAT: 33.3%
basophils; [5]
  percentage of positive cases in BAT: 56%
basophils; first phase
  BAT result (stimulation index): positive results
basophils; first phase, 25 patients selective for CLV vs 15 tolerant controls, p<0.0001 (Mann-Whitney)
  stimulation index in patients compared to the tolerant controls: significantly higher
[1]
  basophil activation after prior incubation with WTM: IgE-mediated and specific

## NCCC(=O)O [Clav 4, 3-aminopropanoic acid]
basophils; first phase
  BAT result (stimulation index): only Clav 2 provided positive results

## O=C(O)[C@H]1/C(=C/CO)O[C@@H]2CC(=O)N21 [CLV, (3R,5R,Z)-2-(2-hydroxyethylidene)-7-oxo-1-oxa-4-aza-bicyclo[3.2.0]heptane-3-carboxylic acid, reference compound]
basophils; [4]
  percentage of positive cases in BAT: 13.3%
basophils; [5]
  percentage of positive cases in BAT: 24%

## CCCCNC(=O)CC(OC)OC [Clav 1, N-butyl-3,3-dimethoxypropanamide]
basophils; first phase
  BAT result (stimulation index): only Clav 2 provided positive results
